Changes are numbered by the printed parent chain. Counter-ions that a name gives are not always drawn.
Assays:
Type in all cases: biochemical
full-length hSIRT1 E230Q = target: T1, full-length hSIRT1 E230Q (Homo sapiens, UniProt Q96EB6, E230Q); assay: SIRT1 activation dose-response, OAcADPr assay with Ac-p53(W5) substrate; settings: for EC50: hSIRT1 E230Q, activation dose-response, Ac-p53(W5) substrate
T1 construct: His6 (C); made in house
T1 sequence (Q96EB6 1-747 E230Q): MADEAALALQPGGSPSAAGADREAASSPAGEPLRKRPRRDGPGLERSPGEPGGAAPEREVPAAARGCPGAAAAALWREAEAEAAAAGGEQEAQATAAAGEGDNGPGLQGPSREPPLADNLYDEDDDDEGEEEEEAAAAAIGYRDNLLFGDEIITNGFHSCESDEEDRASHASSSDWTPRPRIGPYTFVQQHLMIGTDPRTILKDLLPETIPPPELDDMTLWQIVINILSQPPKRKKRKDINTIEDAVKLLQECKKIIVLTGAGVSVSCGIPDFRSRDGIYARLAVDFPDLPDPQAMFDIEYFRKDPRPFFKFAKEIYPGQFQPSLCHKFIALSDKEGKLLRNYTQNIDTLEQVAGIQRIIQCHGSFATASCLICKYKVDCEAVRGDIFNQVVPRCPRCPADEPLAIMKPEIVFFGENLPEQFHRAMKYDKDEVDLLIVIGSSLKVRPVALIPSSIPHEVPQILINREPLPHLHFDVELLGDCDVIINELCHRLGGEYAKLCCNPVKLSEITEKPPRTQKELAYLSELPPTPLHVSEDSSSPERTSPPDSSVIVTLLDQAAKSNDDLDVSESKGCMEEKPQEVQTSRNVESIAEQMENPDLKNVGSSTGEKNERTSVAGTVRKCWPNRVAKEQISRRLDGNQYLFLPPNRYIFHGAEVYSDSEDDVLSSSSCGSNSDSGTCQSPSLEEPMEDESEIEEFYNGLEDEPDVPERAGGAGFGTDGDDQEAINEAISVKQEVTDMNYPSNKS

full-length hSIRT1 I227A = target: T2, full-length hSIRT1 I227A (Homo sapiens, UniProt Q96EB6, I227A); assay: SIRT1 inhibition assay, OAcADPr mass spectrometry
T2 construct: The following point mutants of full-length hSIRT1 were generated; His6 (C); made in house
T2 sequence (Q96EB6 1-747 I227A): T1 sequence (Q96EB6 1-747 E230Q) with I227A, Q230E

full-length hSIRT1 I223R = target: T3, full-length hSIRT1 I223R (Homo sapiens, UniProt Q96EB6, I223R); assay: SIRT1 inhibition assay, OAcADPr mass spectrometry
T3 construct: made in house
T3 sequence (Q96EB6 1-747 I223R): T1 sequence (Q96EB6 1-747 E230Q) with I223R, Q230E

| EC50 fold shift (mutant EC50/wild-type EC50) (full-length hSIRT1 E230Q) | RVmax fold shift = (wild-type RVmax−1)/(mutant RVmax−1) (full-length hSIRT1 E230Q) | EC50 (full-length hSIRT1 E230Q) [nM] | SMILES | IC50 (full-length hSIRT1 I227A) [nM] | IC50 (full-length hSIRT1 I223R) [nM] |
| --- | --- | --- | --- | --- | --- |
| 1.53 | 3.93 | 3360 | O=C(Nc1ccccn1)N1c2nc(-c3cccc(C(F)(F)F)c3)ccc2N2CC[C@H]1C2 [Example 7] | – | – |
| 1.21 | 3.07 | 580 | Cc1cnc2c(NC(=O)N3c4nc(-c5cccc(C(F)(F)F)c5)ccc4N4CC[C@H]3C4)cccc2n1 [Example 8] | – | – |
| – | – | – | CCCC[C@H](NC(=O)[C@H](CC(C)C)NC(=O)[C@H](CCCCNC(=O)C(F)(F)F)NC(=O)[C@H](CCCCN)NC(=O)[C@H](Cc1c[nH]cn1)NC(=O)[C@H](CCCNC(=N)N)NC(C)=O)C(=O)N[C@@H](Cc1ccccc1)C(N)=O [TFA-p53 7-mer, Ac-RHK-K^TFA-L-Nle-F-NH2] | 940 ± 60 | 660 ± 60 |
